Laboratory results published in patent US20210154281A1, “CELL-BASED CANCER VACCINES AND CANCER THERAPIES” (Massachusetts Institute of Technology, priority 2019, published 2021).
Read-outs that look alike come from different tables or passages of the source.

Legend:
Assay type in all cases: cell-based, mouse
[1] = test system: B16F10 melanoma tumor cell line; assay: Cell death by AnnexinV/DAPI staining 48 hours after drug treatment; settings: for cell death by DAPI and Annexin V staining: at the concentrations used; for cytotoxicity at 0.05 µM / viability at 0.05 µM: 50 nM; for cytotoxicity at 0.25 µM / viability at 0.25 µM: 250 nM
Protocol: For assessment of cell death, floating and attached cells were harvested after 48 hours of treatment with the indicated chemotherapeutic drugs. Attached cells were detached using 5 mM EDTA in PBS. The recovered cells were centrifuged at 250×g for 5 minutes, washed once in PBS containing 0.9 mM Ca2+ and 0.5 mM Mg2+ and then stained with AnnV-FITC for 15 minutes in Annexin binding buffer at room temperature according to the manufacturer's protocol (Biolegend). Cells were co-stained with DAPI at a final concentration of 1 μg/ml for 2 minutes in Annexin binding buffer, brought to a final volume of 500 ul using PBS containing 0.9 mM Ca2^+ and 0.5 mM Mg2^+ and analyzed by flow cytometry.
To identify how DNA-damaging chemotherapy could be optimally used to enhance anti-tumor immune function, cytotoxicity assays were performed using the B16F10 melanoma tumor cell line expressing ovalbumin (B16-Ova). Cells were treated with clinically used chemotherapeutic agents followed by assaying for cell death by DAPI and Annexin V staining 48 hours later.

[2] = Cell viability (survival) assay with CellTiter-Glo, 48 hours; settings: mouse, 48 hours, normalized to DMSO-treated control cells; for viability at 48 h, 0.05 uM: .05 uM
Protocol: (§1) For assays of survival, 15,000 cells were plated per well in a 96-well plate in 100 μl media with 5 replicates per condition. Wells along the four edges of the plate were not used. Following cell attachment, the indicated drugs were added in an equal volume of media, and incubated for an additional 48 hours. The media was then removed and replaced with 100 ul of fresh media at room temperature. Following a 30 minute incubation at room temperature, 50 μl of CellTiter-Glo reagent was added, followed by 2 minutes of gentle mixing. The plate was incubated at room temperature for an additional 10 minutes. 100 μl of supernatant was transferred to a 96-well white opaque plate and luminescence was read on a Tecan microplate reader. Values were normalized to those of DMSO-treated control cells.

B16-Ova cells = assay: In vitro cross presentation assay: drug-treated B16-Ova cells, BMDC and OT-1 CD8+ T-cells, IFN-γ+ T-cells by flow cytometry; parameters: reduction of the percentage of IFNg+ T-cells by siRNA knockdown of calreticulin / reduction of T-cell IFN-γ responses / frequency of IFN-γ+ T-cells: concentration or dose not given beside the values
Protocol: B16-Ova or MC-38 Ova cells were treated with various doses of chemotherapeutic drugs for 24 h followed by extensive washing in IMDM (10% FBS, P/S). Subsequently 1×10^6 treated cells were co-cultured with 2.5×10^5 BMDC per well of a 24-well plate for each condition tested. After 24 hours of co-culture, supernatants were removed from each well and the BMDC washed 2-3 times in T-cell media (RPMI containing 10% FBS, 20 mM HEPES, 1 mM sodium pyruvate, 55 uM b-mercaptoethanol, 2 mM L-glutamine, nonessential amino acids and antibiotics). CD8+OT-I T-cells isolated from spleens of OT-I mice were then co-cultured with the BMDC at 125,000 T-cells per well to achieve an effector to target ratio of 0.5. Where indicated, BMDC and/or T-cells were also exposed to chemotherapy drugs. After a 12-15 h incubation, IFN-g producing T-cells were identified and quantified by intra-cellular cytokine staining and flow cytometry using a BD LSR II or Fortessa flow cytometer. Cells were first gated for CD3 expression, then re-gated for CD8 and IFNg expression.
An experimental system was developed to assess dendritic cell-mediated T-cell priming using the B16-Ova cells, in combination with primary bone-marrow derived dendritic cells (BMDC) and OT-I CD8+ T-cells expressing a TCR transgene that specifically recognizes the Ova-derived peptide […] (SEQ ID NO:1) in the context of H2-Kb (OT-1) (Clarke, et al., Immunol Cell Biol., 78(2):110-7 (2000); Hogquist, et al., Cell, 76(1):17-27 (1994)). […] The treated B16-Ova cells/BMDC co-culture was then incubated with purified CD8+ T-cells obtained from the spleens of OT-1 mice, and the appearance of IFNg+CD8 T-cells was measured 12-15 hours later by intracellular staining and subsequent quantification using flow cytometry.

[3] = test system: B16F10 melanoma tumor cell line; assay: Cell viability (survival) assay with CellTiter-Glo, 48 hours; settings: for growth arrest: at the concentrations used; for Cell viability (%) MEAN: 48 hours, normalized to DMSO-treated control cells
Protocol: as §1

[4] = co-treatment of B16-Ova cells with etoposide
[5] = co-treatment of B16-Ova cells with mitoxantrone
[6] = Mus musculus, B16-F10, 48 h, read-out: AnnV+DAPI+ (%) Mean
[7] = Mus musculus, B16-F10, 48 h, read-out: AnnV+DAPI− (%) Mean
[8] = Mus musculus, B16-F10, 48 h, read-out: AnnV−DAPI+ (%) Mean
[9] = Mus musculus, B16-F10, 48 h, read-out: AnnV−DAPI− (%) Mean
[10] = Mus musculus, B16-F10, 48 hours, read-out: AnnV+DAPI+ (%) Mean
[11] = Mus musculus, B16-F10, 48 hours, read-out: AnnV+DAPI− (%) Mean
[12] = Mus musculus, B16-F10, 48 hours, read-out: AnnV−DAPI+ (%) Mean
[13] = Mus musculus, B16-F10, 48 hours, read-out: AnnV−DAPI− (%) Mean

## O=c1[nH]cc(F)c(=O)[nH]1 [5-FU, 5-fluorouracil]
[1]; 48 hours
  cell death by DAPI and Annexin V staining: caused varying extents of apoptotic and non-apoptotic cell death
[1]; Mus musculus, B16-F10, 10 uM, 48 hours, read-out: AnnV+DAPI+ (%) Mean
  cytotoxicity at 10 µM: 5.29%
[1]; Mus musculus, B16-F10, 10 uM, 48 hours, read-out: AnnV+DAPI− (%) Mean
  cytotoxicity at 10 µM: 9.5%
[1]; Mus musculus, B16-F10, 10 uM, 48 hours, read-out: AnnV−DAPI+ (%) Mean
  cytotoxicity at 10 µM: 1.23%
[1]; Mus musculus, B16-F10, 10 uM, 48 hours, read-out: AnnV−DAPI− (%) Mean
  viability at 10 µM: 84%
[1]; Mus musculus, B16-F10, 50 uM, 48 hours, read-out: AnnV+DAPI+ (%) Mean
  cytotoxicity at 50 µM: 6.78%
[1]; Mus musculus, B16-F10, 50 uM, 48 hours, read-out: AnnV+DAPI− (%) Mean
  cytotoxicity at 50 µM: 28.1%
[1]; Mus musculus, B16-F10, 50 uM, 48 hours, read-out: AnnV−DAPI+ (%) Mean
  cytotoxicity at 50 µM: 1.33%
[1]; Mus musculus, B16-F10, 50 uM, 48 hours, read-out: AnnV−DAPI− (%) Mean
  viability at 50 µM: 63.9%
[2]; B16F10 melanoma tumor cells, 10 uM
  viability at 48 h, 10 µM: 49%
[2]; B16F10 melanoma tumor cells, 50 uM
  viability at 48 h, 50 µM: 42.8%

## CC(C)(C)c1ccc(S(=O)(=O)/C=C/C#N)cc1 [Bay11-7085]
B16-Ova cells; [4]
  BMDC-mediated T-cell priming: inhibits BMDC-mediated T-cell priming
  reduction of T-cell IFN-γ responses / frequency of IFN-γ+ T-cells: > 90%
B16-Ova cells; [5]
  reduction of T-cell IFN-γ responses / frequency of IFN-γ+ T-cells: > 50%

## O=P1(N(CCCl)CCCl)NCCCO1 (stereo not shown) [CPM, cyclophosphamide]
[1]; 48 hours
  cell death by DAPI and Annexin V staining: did not induce substantial amounts of cell death
[1]; [6]
  cytotoxicity at 40 µM: 7.7%
  cytotoxicity at 200 µM: 11%
[1]; [7]
  cytotoxicity at 40 µM: 1.44%
  cytotoxicity at 200 µM: 1.09%
[1]; [8]
  cytotoxicity at 40 µM: 0.82%
  cytotoxicity at 200 µM: 0.88%
[1]; [9]
  viability at 40 µM: 90%
  viability at 200 µM: 87%
[2]; 40 uM
  viability at 48 h, 40 µM: 98.5%
[2]; 200 uM
  viability at 48 h, 200 µM: 101%

## CC[C@@]1(O)C(=O)OCc2c1cc1n(c2=O)Cc2cc3ccccc3nc2-1 [CPT, camptothecin]
[1]; 48 hours
  cell death by DAPI and Annexin V staining: did not induce substantial amounts of cell death
[1]; [10]
  cytotoxicity at 0.05 µM: 7.03%
  cytotoxicity at 0.25 µM: 4.71%
[1]; [11]
  cytotoxicity at 0.05 µM: 1.26%
  cytotoxicity at 0.25 µM: 4.35%
[1]; [12]
  cytotoxicity at 0.05 µM: 1.35%
  cytotoxicity at 0.25 µM: 0.58%
[1]; [13]
  viability at 0.05 µM: 90.4%
  viability at 0.25 µM: 90.3%
[2]; B16F10 melanoma tumor cells
  viability at 48 h, 0.25 µM: 77.6%
  viability at 48 h, 0.05 uM: 91.1%

## N.N.[Cl][Pt][Cl] [Cis, cisplatin]
[1]; 10 uM, 48 hours
  AnnV+DAPI+ (%) Mean: 2.76%
  AnnV+DAPI− (%) Mean: 3.68%
  AnnV−DAPI+ (%) Mean: 0.32%
  AnnV−DAPI− (%) Mean: 93.25%
[1]; 50 uM, 48 hours
  AnnV+DAPI+ (%) Mean: 18.75%
  AnnV+DAPI− (%) Mean: 46.80%
  AnnV−DAPI+ (%) Mean: 2.96%
  AnnV−DAPI− (%) Mean: 31.55%
[1]; 48 hours
  cell death by DAPI and Annexin V staining: caused varying extents of apoptotic and non-apoptotic cell death

## CCc1c2c(nc3ccc(OC(=O)N4CCC(N5CCCCC5)CC4)cc13)-c1cc3c(c(=O)n1C2)COC(=O)[C@]3(O)CC [Iri, irinotecan]
[1]; [10]
  cytotoxicity at 0.05 µM: 3.79%
  cytotoxicity at 0.25 µM: 5.06%
[1]; [11]
  cytotoxicity at 0.05 µM: 0.36%
  cytotoxicity at 0.25 µM: 0.54%
[1]; [12]
  cytotoxicity at 0.05 µM: 1.87%
  cytotoxicity at 0.25 µM: 1.63%
[1]; [13]
  viability at 0.05 µM: 94%
  viability at 0.25 µM: 92.8%
[1]; Mus musculus, B16-F10, 1 uM, 48 hours, read-out: AnnV+DAPI+ (%) Mean
  cytotoxicity at 1 µM: 6.38%
[1]; Mus musculus, B16-F10, 1 uM, 48 hours, read-out: AnnV+DAPI− (%) Mean
  cytotoxicity at 1 µM: 1.74%
[1]; Mus musculus, B16-F10, 1 uM, 48 hours, read-out: AnnV−DAPI+ (%) Mean
  cytotoxicity at 1 µM: 0.89%
[1]; Mus musculus, B16-F10, 1 uM, 48 hours, read-out: AnnV−DAPI− (%) Mean
  viability at 1 µM: 91%
[3]
  growth arrest: caused some degree of growth arrest
[2]; B16F10 melanoma tumor cells
  viability at 48 h, 0.25 µM: 99.8%
  viability at 48 h, 0.05 uM: 96.8%
[2]; B16F10 melanoma tumor cells, 1 uM
  viability at 48 h, 1 µM: 97.9%

## O=C1[O][Pt]2([NH][C@@H]3CCCC[C@H]3[NH]2)[O]C1=O [Oxal, oxaliplatin]
[1]; 10 uM, 48 hours
  AnnV+DAPI+ (%) Mean: 1.73%
  AnnV+DAPI− (%) Mean: 2.65%
  AnnV−DAPI+ (%) Mean: 1.11%
  AnnV−DAPI− (%) Mean: 94.50%
[1]; 50 uM, 48 hours
  AnnV+DAPI+ (%) Mean: 4.25%
  AnnV+DAPI− (%) Mean: 4.23%
  AnnV−DAPI+ (%) Mean: 1.09%
  AnnV−DAPI− (%) Mean: 90.45%
[1]; 48 hours
  cell death by DAPI and Annexin V staining: did not induce substantial amounts of cell death
[3]; 10 uM
  Cell viability (%) MEAN: 45.09%
[3]; 50 uM
  Cell viability (%) MEAN: 44.21%
[3]
  growth arrest: caused some degree of growth arrest

## Cc1ccc(-c2ccc3c(ccc4sc5c(c43)NC[C@@H](C)NC5=O)n2)cn1 [PF-3644022]
B16-Ova cells; [4]
  BMDC-mediated T-cell priming: enhances BMDC-mediated T-cell priming

## Oc1ccc(-c2nc(-c3ccncc3)c(-c3ccc(F)cc3)[nH]2)cc1 [SB202190]
B16-Ova cells; [4]
  reduction of T-cell IFN-γ responses / frequency of IFN-γ+ T-cells: ~22%
B16-Ova cells; [5]
  reduction of T-cell IFN-γ responses / frequency of IFN-γ+ T-cells: nearly abrogated

## CN1C(=O)C(Cc2c[nH]c3ccccc23)NC1=S (stereo not shown) [necrostatin-1]
B16-Ova cells; co-treatment with etoposide or mitoxantrone
  ability of drug-treated B16-Ova cells co-cultured with BMDCs to induce IFN-g in T-cells: inhibited the ability of both etoposide and mitoxantrone-treated B16-Ova cells

## Z-VAD
B16-Ova cells; [4]
  reduction of T-cell IFN-γ responses / frequency of IFN-γ+ T-cells: ~12%
B16-Ova cells; [5]
  reduction of T-cell IFN-γ responses / frequency of IFN-γ+ T-cells: no effect
